Assay results from patent publication EP3510997B1, “SOFT GELATIN CAPSULES COMPRISING A SUSPENSION OF TADALAFIL” (Gap S.A., priority 2018, dated 2019).

How the values were obtained:
[1] = Solubility studies of tadalafil in vegetable oils; format: physicochemical; conditions: such as olive oil, sunflower oil, safflower oil, soybean oil
Description: Suspension formulations of tadalafil were initially produced in soybean oil, and in a mixture of hydrogenated and partially-hydrogenated soybean oil in order to produce a stable suspension.

[2] = cited from earlier work

## CN1CC(=O)N2[C@H](c3ccc4c(c3)OCO4)c3[nH]c4ccccc4c3C[C@@H]2C1=O [Tadalafil, (6R,12aR)-6-(Benzo[d][1,3]dioxol-5-yl)-2-methyl-2,3,12,12a]
[1]
  solubility in vegetable oils: practically insoluble
[2]; ethanol and other organic solvents
  solubility in ethanol and other organic solvents: very slightly soluble
[2]; water
  solubility in water: practically insoluble
